Experimental data reported in the supplement of paper PMC9013687.
± gives the standard deviation of the averaged measurements.

Tests used:
Danio rerio embryo [1] = assay: EC20 Eye-jaw distance_Decrease; higher = less potent; settings: exposure time: 4 dpf
Procedure: (§1)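 Zebrafish embryos (UFZ-OBI strain) were exposed from 2 hpf for 48 h (2 dpf) or 96 h (4 dpf) at 28 °C; spontaneous tail coiling was scored at 25 hpf. Morphological features from automated image analysis (FishInspector), heart rate and locomotor response were fitted with drc models. Quantal endpoints were dichotomised at 2.5 SD from controls and fitted with a log-logistic model; heart rate, pigmentation and STC were normalised to the replicate control mean. Betamethasone was tested as betamethasone dipropionate, diflorasone as diflorasone diacetate.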

Danio rerio embryo [2] = assay: EC20 Curvature_Increase; higher = less potent
Procedure: as §1

Danio rerio embryo [3] = assay: EC20 LMR dark; higher = less potent; settings: exposure time: 4 dpf
Procedure: as §1

Danio rerio embryo [4] = assay: EC50 Body length_Decrease
Procedure: as §1

Danio rerio embryo [5] = assay: EC20 Any effect; higher = less potent
Procedure: as §1

Danio rerio embryo [6] = assay: EC10 Body length_Decrease; higher = less potent
Procedure: as §1

Danio rerio embryo [7] = assay: EC20 Otolith-eye distance_Decrease; higher = less potent; settings: exposure time: 4 dpf
Procedure: as §1

Danio rerio embryo [8] = assay: EC10 Yolk sac size_Increase; higher = less potent; settings: exposure time: 4 dpf
Procedure: as §1

Danio rerio embryo [9] = settings: for EC50 STC decrease: exposure time: 25 h
Procedure: as §1

Danio rerio embryo [10] = assay: EC10 Curvature_Increase; higher = less potent
Procedure: as §1

Danio rerio embryo [11] = assay: EC10 Any effect; higher = less potent
Procedure: as §1

Danio rerio embryo [12] = assay: EC10 Bladder size_Decrease; higher = less potent; settings: exposure time: 4 dpf
Procedure: as §1

Danio rerio embryo [13] = assay: EC10 Pericard size_Increase; higher = less potent; settings: exposure time: 4 dpf
Procedure: as §1

Danio rerio embryo [14] = assay: EC10 Otolith-eye distance_Decrease; higher = less potent; settings: exposure time: 4 dpf
Procedure: as §1

Danio rerio embryo [15] = assay: EC50 Eye-jaw distance_Decrease; settings: exposure time: 4 dpf
Procedure: as §1

Danio rerio embryo [16] = assay: EC10 LMR dark; higher = less potent; settings: exposure time: 4 dpf
Procedure: as §1

Danio rerio embryo [17] = assay: EC20 Yolk sac size_Increase; higher = less potent; settings: exposure time: 4 dpf
Procedure: as §1

Danio rerio embryo [18] = assay: EC50 Yolk sac size_Increase; settings: exposure time: 4 dpf
Procedure: as §1

Danio rerio embryo [19] = settings: exposure time: 4 dpf
Procedure: as §1

Danio rerio embryo [20] = assay: EC20 Bladder size_Decrease; higher = less potent; settings: exposure time: 4 dpf
Procedure: as §1

Danio rerio embryo [21] = assay: EC50 Otolith-eye distance_Decrease; settings: exposure time: 4 dpf
Procedure: as §1

Danio rerio embryo [22] = assay: EC50 Bladder size_Decrease; settings: exposure time: 4 dpf
Procedure: as §1

Danio rerio embryo [23] = assay: spontaneous tail coiling frequency (coils/min/embryo); higher = more spontaneous movement; settings: 25 hpf
Procedure: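 Spontaneous tail coilings of zebrafish embryos exposed from 2 hpf were recorded at 24-25 hpf in 1-min videos and detected by a KNIME workflow from grey-value variance. Betamethasone was tested as the dipropionate, diflorasone as the diacetate.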

Danio rerio embryo [24] = assay: EC20 Pericard size_Increase; higher = less potent; settings: exposure time: 4 dpf
Procedure: as §1

Danio rerio embryo [25] = assay: EC10 Eye-jaw distance_Decrease; higher = less potent; settings: exposure time: 4 dpf
Procedure: as §1

Danio rerio embryo [26] = assay: EC50 Pericard size_Increase; settings: exposure time: 4 dpf
Procedure: as §1

Danio rerio embryo [27] = assay: EC20 Body length_Decrease; higher = less potent
Procedure: as §1

Danio rerio embryo [28] = assay: EC50 Curvature_Increase
Procedure: as §1

CCCNCC(O)COc1ccccc1C(=O)CCc1ccccc1 (stereo not drawn) [Propafenone] was tested, and the “EC20 Eye-jaw distance Decrease” value (Danio rerio embryo [1]) was 18.8 µM, the “EC20 Curvature Increase” value (Danio rerio embryo [2]; exposure time: 2 dpf) was 49 µM and the “EC20 LMR dark” value (Danio rerio embryo [3]) was 4.28 µM. The “EC50 Body length Decrease” value (Danio rerio embryo [4]; exposure time: 2 dpf) was 79.5 µM, the “EC20 Any effect” value (Danio rerio embryo [5]; exposure time: 4 dpf) was 18.9 µM and the “EC10 Body length Decrease” value (Danio rerio embryo [6]; exposure time: 2 dpf) was 20.8 µM. For the same compound, the “EC20 Otolith-eye distance Decrease” value (Danio rerio embryo [7]) was 33.9 µM, the “EC10 Yolk sac size Increase” value (Danio rerio embryo [8]) was 17.3 µM and the “EC50 Any effect” value (Danio rerio embryo [9]; exposure time: 4 dpf) was 20.6 µM. The “EC50 LMR ligth increase” value (Danio rerio embryo [9]; exposure time: 4 dpf) was 19.6 µM, the “EC50 Pigmentation increase” value (Danio rerio embryo [9]; exposure time: 4 dpf) was 34.7 µM and the “EC50 STC decrease” value (Danio rerio embryo [9]) was 47.5 µM. The “EC10 Curvature Increase” value (Danio rerio embryo [10]; exposure time: 2 dpf) was 27.6 µM, the “EC10 Any effect” value (Danio rerio embryo [11]; exposure time: 4 dpf) was 17.9 µM and the “EC10 Bladder size Decrease” value (Danio rerio embryo [12]) was 6.71 µM. For the same compound, the “EC10 Pericard size Increase” value (Danio rerio embryo [13]) was 17.8 µM, the “EC10 Otolith-eye distance Decrease” value (Danio rerio embryo [14]) was 33 µM and the “EC50 Eye-jaw distance Decrease” value (Danio rerio embryo [15]) was 20.6 µM. For the same compound, the “EC10 LMR dark” value (Danio rerio embryo [16]) was 2.43 µM, the “EC20 Yolk sac size Increase” value (Danio rerio embryo [17]) was 18.4 µM and the “EC50 Yolk sac size Increase” value (Danio rerio embryo [18]) was 20.5 µM. For the same compound, the “EC50 LMR dark” value (Danio rerio embryo [19]) was 11.2 µM, the “EC20 Bladder size Decrease” value (Danio rerio embryo [20]) was 7.09 µM and the “EC50 Otolith-eye distance Decrease” value (Danio rerio embryo [21]) was 35.5 µM. For the same compound, the “EC50 Bladder size Decrease” value (Danio rerio embryo [22]) was 7.8 µM, the “spontaneous tail coiling frequency” value (Danio rerio embryo [23]; 8.8 µM) was 1.68 and the “spontaneous tail coiling frequency” value (Danio rerio embryo [23]; 13.2 µM) was 1.86. For the same compound, the “spontaneous tail coiling frequency” value (Danio rerio embryo [23]; 19.8 µM) was 1.81 ± 0.55, the “spontaneous tail coiling frequency” value (Danio rerio embryo [23]; 29.6 µM) was 0.98 and the “spontaneous tail coiling frequency” value (Danio rerio embryo [23]; 44.5 µM) was 1.23 ± 1.2. For the same compound, the “spontaneous tail coiling frequency” value (Danio rerio embryo [23]; 66.7 µM) was 1, the “spontaneous tail coiling frequency” value (Danio rerio embryo [23]; 100 µM) was 0.422 ± 0.49 and the “spontaneous tail coiling frequency” value (Danio rerio embryo [23]; 142.9 µM) was 0.49. The “EC20 Pericard size Increase” value (Danio rerio embryo [24]) was 18.8 µM, the “EC10 Eye-jaw distance Decrease” value (Danio rerio embryo [25]) was 17.8 µM and the “EC50 Pericard size Increase” value (Danio rerio embryo [26]) was 20.6 µM. The “EC20 Body length Decrease” value (Danio rerio embryo [27]; exposure time: 2 dpf) was 34.1 µM and the “EC50 Curvature Increase” value (Danio rerio embryo [28]; exposure time: 2 dpf) was 131 µM.

CCO/N=C(\CC)C1=C(O)CC(c2c(C)cc(C)cc2C)CC1=O (stereo not drawn) [Tralkoxydim] was tested, and the “EC20 Eye-jaw distance Decrease” value (Danio rerio embryo [1]) was 89 µM, the “EC20 Curvature Increase” value (Danio rerio embryo [2]; exposure time: 2 dpf) was 84.7 µM and the “EC20 Curvature Increase” value (Danio rerio embryo [2]; exposure time: 4 dpf) was 90.7 µM. For the same compound, the “EC20 LMR dark” value (Danio rerio embryo [3]) was 1.56 µM, the “EC50 Body length Decrease” value (Danio rerio embryo [4]; exposure time: 2 dpf) was 66.2 µM and the “EC50 Body length Decrease” value (Danio rerio embryo [4]; exposure time: 4 dpf) was 103 µM. For the same compound, the “EC20 Any effect” value (Danio rerio embryo [5]; exposure time: 2 dpf) was 47.2 µM, the “EC20 Any effect” value (Danio rerio embryo [5]; exposure time: 4 dpf) was 52.7 µM and the “EC10 Body length Decrease” value (Danio rerio embryo [6]; exposure time: 2 dpf) was 36.6 µM. The “EC10 Body length Decrease” value (Danio rerio embryo [6]; exposure time: 4 dpf) was 85.8 µM, the “EC20 Otolith-eye distance Decrease” value (Danio rerio embryo [7]) was 89.6 µM and the “EC10 Yolk sac size Increase” value (Danio rerio embryo [8]) was 37.4 µM. For the same compound, the “EC50 Any effect” value (Danio rerio embryo [9]; exposure time: 2 dpf) was 66 µM, the “EC50 Otolith” value (Danio rerio embryo [9]; exposure time: 2 dpf) was 241 µM and the “EC50 Any effect” value (Danio rerio embryo [9]; exposure time: 4 dpf) was 68.9 µM. The “EC50 STC decrease” value (Danio rerio embryo [9]) was 171 µM, the “EC10 Curvature Increase” value (Danio rerio embryo [10]; exposure time: 2 dpf) was 77.4 µM and the “EC10 Curvature Increase” value (Danio rerio embryo [10]; exposure time: 4 dpf) was 85.2 µM. For the same compound, the “EC10 Any effect” value (Danio rerio embryo [11]; exposure time: 2 dpf) was 38.8 µM, the “EC10 Any effect” value (Danio rerio embryo [11]; exposure time: 4 dpf) was 45.1 µM and the “EC10 Bladder size Decrease” value (Danio rerio embryo [12]) was 47.1 µM. For the same compound, the “EC10 Pericard size Increase” value (Danio rerio embryo [13]) was 103 µM, the “EC10 Otolith-eye distance Decrease” value (Danio rerio embryo [14]) was 77.1 µM and the “EC50 Eye-jaw distance Decrease” value (Danio rerio embryo [15]) was 97.9 µM. The “EC10 LMR dark” value (Danio rerio embryo [16]) was 0.149 µM, the “EC20 Yolk sac size Increase” value (Danio rerio embryo [17]) was 45.9 µM and the “EC50 Yolk sac size Increase” value (Danio rerio embryo [18]) was 65.3 µM. The “EC50 LMR dark” value (Danio rerio embryo [19]) was 85.8 µM, the “EC20 Bladder size Decrease” value (Danio rerio embryo [20]) was 51.9 µM and the “EC50 Otolith-eye distance Decrease” value (Danio rerio embryo [21]) was 116 µM. The “EC50 Bladder size Decrease” value (Danio rerio embryo [22]) was 61.3 µM, the “spontaneous tail coiling frequency” value (Danio rerio embryo [23]; 30.4 µM) was 2.43 ± 0.84 and the “spontaneous tail coiling frequency” value (Danio rerio embryo [23]; 60.7 µM) was 2.33. For the same compound, the “spontaneous tail coiling frequency” value (Danio rerio embryo [23]; 91.1 µM) was 4.43 ± 1.7, the “spontaneous tail coiling frequency” value (Danio rerio embryo [23]; 121.4 µM) was 3.17 ± 1.6 and the “spontaneous tail coiling frequency” value (Danio rerio embryo [23]; 151.8 µM) was 1.92 ± 2.8. The “spontaneous tail coiling frequency” value (Danio rerio embryo [23]; 197.3 µM) was 0.957 ± 1.6, the “spontaneous tail coiling frequency” value (Danio rerio embryo [23]; 258 µM) was 0 and the “EC20 Pericard size Increase” value (Danio rerio embryo [24]) was 104 µM. For the same compound, the “EC10 Eye-jaw distance Decrease” value (Danio rerio embryo [25]) was 84.3 µM, the “EC50 Pericard size Increase” value (Danio rerio embryo [26]) was 106 µM and the “EC20 Body length Decrease” value (Danio rerio embryo [27]; exposure time: 2 dpf) was 45.5 µM. The “EC20 Body length Decrease” value (Danio rerio embryo [27]; exposure time: 4 dpf) was 91.9 µM, the “EC50 Curvature Increase” value (Danio rerio embryo [28]; exposure time: 2 dpf) was 98.7 µM and the “EC50 Curvature Increase” value (Danio rerio embryo [28]; exposure time: 4 dpf) was 101 µM.
